According to paper PMC7956476, “Quinoline Functionalized Schiff Base Silver (I) Complexes: Interactions with Biomolecules and In Vitro Cytotoxicity, Antioxidant and Antimicrobial Activities” (Molecules, 2021):
Read-outs that look alike come from different tables or passages of the source.

Tests used:
[1] = tested on: Escherichia coli ATCC 25922; experiment: Minimum inhibitory concentration (MIC), spotting on Müeller–Hinton agar; format: cell-based; conditions: Gram − Ve; E. coli; 37 °C, 18 h
Method: (§1) Sterilized Nutrient agar medium was first prepared by dissolving 38 g of Müeller–Hinton agar (MHA) (Biolab, Midrand, Africa) in distilled water (1 L). […] The cooled Agar medium was poured in Petri dishes while ensuring a uniform 4 mm depth of the medium and cooling further to ambient temperature.
(§2) These bacteria were inoculated in a sterilized Nutrient Broth (NB) (Biolab, Midrand, Africa) through streak plate technique and incubated at 37 °C for 18 h. The nutrient broth was sterilized by dissolving 1.3 g in distilled water (100 mL). Ca. 10 mL of the nutrient broth was transferred into a cotton wool-plugged test tubes and wrapped with an aluminium foil. […] Following this was the isolation of a single colony of the bacteria and inoculated into a 10 mL sterile NB which was then incubated in a shaking incubator at 37 °C for 18 h. Each of the bacteria strain concentrations was adjusted with sterile distilled water to get a final concentration of 1.5 × 10^8 cfu/mL, i.e., 0.5 Mc Farland’s Standard using a densitometer (Mc Farland Latvia). The bacteria were lawn inoculated on the set MHA Petri dishes using a sterile cotton swab. Screening of L1–L5 and Q1–Q15 for antibacterial activity was first carried out by spotting 5 µL of their solution (prepared from the dissolution of 1000 µg of the L1–L5 and Q1–Q15 in 1 mL dimethyl sulfoxide (DMSO)) on an MHA petri dish and incubated at 37 °C for 18 h. The antibacterial activity was determined by looking out for a clear zone at the spotting point.

[2] = tested on: Pseudomonas aeruginosa ATCC 27853; experiment: as above; format: cell-based; conditions: Gram − Ve; P. aeruginosa; 37 °C, 18 h
Method: as §1, §2

[3] = tested on: Salmonella typhimurium ATCC 14026; experiment: as above; format: cell-based; conditions: Gram − Ve; S. typhi; 37 °C, 18 h
Method: as §1, §2

[4] = tested on: Staphylococcus aureus ATCC 25923; experiment: as above; format: cell-based; conditions: Gram + Ve; S. aureus; 37 °C, 18 h
Method: as §1, §2

[5] = tested on: Staphylococcus aureus ATCC 700699 (methicillin-resistant); experiment: as above; format: cell-based; conditions: Gram + Ve; methicillin-resistant S. aureus; 37 °C, 18 h
Method: as §1, §2

[6] = Ferric reducing antioxidant power (FRAP) assay; format: biochemical; conditions: done in triplicate
Excerpt: Antioxidants are important in protecting the human body against damage by reactive oxygen species (ROS). Accumulation of ROS in the cells may lead to damage of the DNA, RNA, and proteins which subsequently leads to several physiological disorders such as cardiovascular disease, diabetes, rheumatism, atherosclerosis, cancer, aging and cell death. […] The free radical scavenging ability of all ligands and complexes in this study were investigated using ferric reducing antioxidant power (FRAP). In antioxidant studies, FRAP assay is often preferred because it is simple, fast, economical, and direct in antioxidant measurement. FRAP assay is based on the electron-donating ability of an antioxidant compound. This involves the reduction of a colorless Fe^3+ tripyridyltriazine complex (Fe^3+ (TPTZ)) to an intense blue-colored Fe^2+ tripyridyltriazine complex (Fe^2+ (TPTZ)) by the electron-donating antioxidants at low pH [69]. The reducing power is to determine the reductive ability of the test compounds.
Antioxidant activity studies of L1–L5 and Q1–Q15 were done using ferric reducing antioxidant power (FRAP) assay. The ferric reducing antioxidant power assay is often used to evaluate the ability of an antioxidant to donate an electron. […] The resulting mixture was incubated at 50 °C for 20 min, and 2.5 mL of 10% trichloroacetic acid was added to acidify the mixture. After that, 1 mL of the acidified mixture was added to 1 mL of distilled water and 0.5 mL of 0.1% FeCl3. The absorbance of the resulting solution was then measured at 700 nm. The antioxidant power of the compounds was expressed as a percentage of ferric reducing antioxidant power Ascorbic acid equivalent, as shown in Equation (4). (4) % FRAP =Absorbance of Absorbance of Sample/Absorbance of Ascorbic Acid ×100

[7] = tested on: calf thymus DNA (CT-DNA); experiment: CT-DNA electronic absorption titration (Wolfe–Shimer); format: binding
Method: The interaction of the L1–L5 and complexes Q1–Q15 with calf thymus-DNA was carried out in a Phosphate buffer saline solution pH 7.2 stored at 4 °C. The DNA stock solution was prepared by dissolving CT-DNA sodium salt in Phosphate buffer saline solution with continuous stirring overnight. It was filtered and stored at 4 °C and used within four days. […] A fixed amount of the L1–L5 and complexes Q1–Q15 (50 µM) were prepared by dissolving an appropriate amount in DMSO. […] Therefore, in all the experimental of the interaction of L1–L5 and complexes Q1–Q15 with biomolecules, the final concentration of DMSO in the incubation mixture was ~2% (v/v).
The binding modes of L1–L5 and complexes Q1–Q15 to CT-DNA were characterized through electronic absorption titration by varying concentrations of CT-DNA (0–30 µM) in phosphate buffer saline solution against fixed concentrations (20 µM) of L1–L5 and complexes Q1–Q15. […] The absorbance of CT-DNA is cancelled by adding equivalent amounts of CT-DNA to both the tested compounds and the reference solutions.

[8] = tested on: CT-DNA-EB adduct; experiment: Fluorescence competitive displacement of ethidium bromide from CT-DNA; format: binding, calf; conditions: for CT-DNA-EB-Complex Ksv (M^−1) × 10^4: Stern–Volmer quenching constant, 25 °C; for CT-DNA-EB-Complex Kq (M^−1S^−1) × 10^12: bimolecular quenching constant, Ksv = Kqτo, τo 10^−8 s; for CT-DNA-EB-Complex Kbin (M^−1) × 10^5: binding constant from double-logarithmic plot
Excerpt: The Stern–Volmer plot approach was used based on the fact that the Stern–Volmer plots for Q1–Q15 (Figure 5c), were linear an indication of only one mechanism for the quenching fluorescence, i.e., either dynamic or static. […] (1) Ksv=Kqτo where Ksv, Kq, and τo represent Stern–Volmer quenching constant, bimolecular quenching constant, and an average lifetime of the fluorophore in the absence of the quencher, respectively. τₒ normally takes about 10^−8 s in biomacromolecules.
The double-logarithmic Equation (2) was used in determining the binding constant of complexes Q1–Q15 and CT-DNA. (2) logFo−F/F=logKb+n logQ
A competitive displacement study was carried out using fluorescence spectroscopy between CT-DNA pre-treated with ethidium bromide (EB) and complexes Q1–Q15 to establish the complexes′ actual mode of binding to CT-DNA. […] The competitive luminescence displacement assay was done using a modified method. Pre-treated 15 µM solution of EB with 15 µM of CT-DNA was prepared in a phosphate buffer of pH 7.2 and left to equilibrate for 30 min. Keeping CT-DNA-EB concentrations constant, different concentrations (0–20 µM) of the complexes were added at 8 min incubation interval at room temperature. The fluorescence quenching ability of CT-DNA bound EB by the complexes were recorded in the wavelength range of 530–700 nm with an excitation wavelength at 525 nm at 25 °C. (6) Fo/F=1+KSVQ=1+KqτoQ
A Stern–Volmer (Equation (6)) was used to evaluate the CT-DNA-EB fluorescence quenching of the complexes. Where Fo and F denote the relative fluorescence intensities of CT-DNA in the absence and presence of the quencher, Ksv, Stern–Volmer quenching constant, [Q], quencher concentration, Kq, bimolecular quenching constant and τo, average lifetime of the fluorophore in the absence of the quencher which is typically equal to 10^−8 s in biomacromolecules.

[9] = target: bovine serum albumin (BSA) (Bos taurus, UniProt P02769); experiment: Albumin binding by absorption spectroscopy titration
Excerpt: Bovine serum albumin (BSA) was used as the protein standard in this study because of its close resemblance to human serum albumin (HSA), its stability, high solubility, neutrality in many biochemical reactions and low cost. In protein binding study, absorption spectroscopy titration is a known method used in studying the conformational changes in proteins, and this protein is characterized by an intense absorbance peak at 280 nm depicting the microenvironment around tyrosine and tryptophan residue polarity.
The absorbance assay of albumin binding is a very simple method used in identifying the conformational changes in protein. […] A stock solution of bovine serum albumin (BSA) was prepared by dissolving an appropriate amount of BSA in phosphate buffer saline solution (pH 7.2) under constant stirring for 1 h at 25 °C. It was kept at 4 °C and used within four days. […] The stock solution of the complex was prepared by dissolving 1 mmol of the complexes in DMSO. The absorption titration assay was done by adding different concentrations (0–10 µM) of the complexes to a constant BSA concentration (6 µM). The sample solution was incubated after each addition of the concentrations for 10 min at 25 °C before recording the absorbance at λmax 280 nm.

[10] = intrinsic binding constant, absorption titration, PBS pH 7.2

Chain of bovine serum albumin (BSA) (P02769 25-607): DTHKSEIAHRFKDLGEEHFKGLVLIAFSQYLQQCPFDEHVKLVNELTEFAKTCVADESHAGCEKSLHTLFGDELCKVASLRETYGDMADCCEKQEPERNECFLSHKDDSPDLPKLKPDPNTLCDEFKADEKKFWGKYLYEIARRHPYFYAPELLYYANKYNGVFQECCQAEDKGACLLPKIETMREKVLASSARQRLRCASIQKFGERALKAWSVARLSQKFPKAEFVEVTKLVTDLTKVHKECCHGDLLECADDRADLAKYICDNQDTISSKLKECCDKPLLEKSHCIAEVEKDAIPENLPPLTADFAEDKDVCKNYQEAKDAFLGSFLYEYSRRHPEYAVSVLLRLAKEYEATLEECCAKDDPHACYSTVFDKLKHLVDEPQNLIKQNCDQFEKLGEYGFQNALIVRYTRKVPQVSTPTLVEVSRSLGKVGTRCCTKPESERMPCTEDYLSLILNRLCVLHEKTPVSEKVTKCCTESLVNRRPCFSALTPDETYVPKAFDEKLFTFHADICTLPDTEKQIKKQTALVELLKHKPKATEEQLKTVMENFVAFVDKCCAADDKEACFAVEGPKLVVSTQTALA

| Structure (SMILES) | Minimum inhibitory concentration, EC [1] [µg/mL] | Minimum inhibitory concentration, PA [2] [µg/mL] | Minimum inhibitory concentration, ST [3] [µg/mL] | Minimum inhibitory concentration, SA [4] [µg/mL] | Minimum inhibitory concentration, MRSA [5] [µg/mL] | Antioxidant (IC50 mg/mL) FRAP [6] [mg/mL] | CT-DNA-Cmp. Kb (M^−1) × 10^5 [7, 10] | CT-DNA-EB-Complex Ksv (M^−1) × 10^4 ([8]; EB displacement) | CT-DNA-EB-Complex Kq (M^−1S^−1) × 10^12 [8] | CT-DNA-EB-Complex Kbin (M^−1) × 10^5 [8] | Protein-Complex Kb (M^−1) × 10^4 [9] | hypochromic shift in the absorption bands on addition of CT-DNA ([7]; absorption titration with CT-DNA) | Protein-Complex Kb (M^−1) × 10^4 ([9]; BSA absorption titration, 280 nm, 25 °C) | CT-DNA-Cmp. Kb (M^−1) × 10^5 ([7]; pH 7.2) | binding constant (Kbin) to CT-DNA ([8]; as given in the text, EB displacement, double-logarithmic plot) [M⁻¹] |
| --- | --- | --- | --- | --- | --- | --- | --- | --- | --- | --- | --- | --- | --- | --- | --- |
| O=[N+]([O-])[O-].[Ag+].c1ccc2nc(-c3nc4ccccc4s3)ccc2c1.c1ccc2nc(-c3nc4ccccc4s3)ccc2c1 [Complex Q2, [Ag(L2)2]NO3] | 25 | 12.5 | 50 | 25 | 50 | 1.10 ± 0.0044 | 3.00 (M^−1) × 10^5 | 2.68 (M^−1) × 10^4 | 2.68 (M^−1S^−1) × 10^12 | 5.03 (M^−1) × 10^5 | 7.97 (M^−1) × 10^4 | – | – | – | – |
| [Ag+].[O-][Cl+3]([O-])([O-])[O-] [AgClO4, silver perchlorate, reference compound] | 25 | 0.8 | 0.2 | 3.125 | 6.25 | 0.88 ± 0.051 | 3.30 (M^−1) × 10^5 | 3.31 (M^−1) × 10^4 | 3.31 (M^−1S^−1) × 10^12 | 6.00 (M^−1) × 10^5 | – | 23.64–50.86% | 4.82 (M^−1) × 10^4 | – | – |
| Cc1ccc(N=Cc2ccc3ccccc3n2)cc1.Cc1ccc(N=Cc2ccc3ccccc3n2)cc1.O=S(=O)([O-])C(F)(F)F.[Ag+] [Complex Q14, [Ag(L4)2]CF3SO3] | 25 | ~0.8 | 50 | 50 | 1000 | 3.55 ± 0.022 | 3.33 (M^−1) × 10^5 | 2.98 (M^−1) × 10^4 | 2.98 (M^−1S^−1) × 10^12 | 5.31 (M^−1) × 10^5 | 7.50 (M^−1) × 10^4 | – | – | – | – |
| O=[N+]([O-])[O-].[Ag+] [AgNO3, silver nitrate, reference compound] | 0.8 | 12.5 | 1000 | 3.125 | 0.2 | 1.43 ± 0.03 | – | 3.12 (M^−1) × 10^4 | 3.12 (M^−1S^−1) × 10^12 | 4.50 (M^−1) × 10^5 | 4.49 (M^−1) × 10^4 | – | – | 3.00 (M^−1) × 10^5 | – |
| Clc1ccc(N=Cc2ccc3ccccc3n2)cc1.Clc1ccc(N=Cc2ccc3ccccc3n2)cc1.O=S(=O)([O-])C(F)(F)F.[Ag+] [Complex Q13, [Ag(L3)2]CF3SO3] | 25 | 12.5 | 50 | 25 | 50 | 2.22 ± 0.0055 | 4.29 (M^−1) × 10^5 | 3.33 (M^−1) × 10^4 | 3.33 (M^−1S^−1) × 10^12 | 5.74 (M^−1) × 10^5 | 2.89 (M^−1) × 10^4 | – | – | – | – |
| C(=NCc1cccs1)c1ccc2ccccc2n1.C(=NCc1cccs1)c1ccc2ccccc2n1.[Ag+].[O-][Cl+3]([O-])([O-])[O-] [Complex Q10, [Ag(L5)2]ClO4] | 6.25 | 1.6 | 100 | 25 | 1000 | 0.98 ± 0.055 | 5.00 (M^−1) × 10^5 | 2.98 (M^−1) × 10^4 | 2.98 (M^−1S^−1) × 10^12 | 9.61 (M^−1) × 10^5 | 8.01 (M^−1) × 10^4 | – | – | – | 961000 |
